# Source: PMC6776549, “Gingival solitary chemosensory cells are immune sentinels for periodontitis” (Nature Communications, 2019)
# Columns and labels:
# Tas2r105 [1] = biological target: T1, Tas2r105 (Mus musculus, UniProt Q9JKT4); test: calcium mobilization in transfected HEK293, fluorescence dose-response; assay type: cell-based
# T1 construct: coding region amplified from WT mouse taste bud cDNA; N-terminal tag of first 45 residues of rat somatostatin receptor 3; pcDNA3.1/Zeo(+); transient in HEK293 (PEAKrapid) with chimeric reporter G protein Galpha16gust44
# T1 sequence (Q9JKT4 1-300): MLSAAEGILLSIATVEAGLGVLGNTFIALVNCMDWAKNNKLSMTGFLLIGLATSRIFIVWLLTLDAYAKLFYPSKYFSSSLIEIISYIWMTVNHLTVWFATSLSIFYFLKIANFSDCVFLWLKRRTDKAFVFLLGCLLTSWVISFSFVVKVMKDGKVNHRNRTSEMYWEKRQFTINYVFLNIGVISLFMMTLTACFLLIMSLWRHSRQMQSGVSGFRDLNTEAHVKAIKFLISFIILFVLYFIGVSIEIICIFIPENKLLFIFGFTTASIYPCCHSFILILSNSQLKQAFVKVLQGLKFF
# Tas2r105 [2] = biological target: T1, Tas2r105; test: calcium mobilization in transfected HEK293; assay type: cell-based; settings: agonist, Gα16gust44 co-expressed
compound,measurement,setting,value
CCCCCCCCCC(=O)CC(=O)N[C@H]1CCOC1=O [LasI],EC50,Tas2r105 [1],8.9 µM
CC[N+](CC)(CC(=O)Nc1c(C)cccc1C)Cc1ccccc1 [denatonium benzoate],calcium mobilization in transfected HEK293,Tas2r105 [2],Tas2r105 was also activated by the bitter compounds denatonium benzoate (Den)
CCCCCCCC(=O)N[C@H]1CCOC1=O [C8-HSL],calcium mobilization in transfected HEK293,Tas2r105 [2]; synthetic compound,two synthetic HSLs: 3-oxo-C12-HSL and C8-HSL
